From patent publication US20070254856A1, “Use of acetylsalicylic acid (ASA) in the application of a membrane lung” (priority 2006, published 2007)

Key:
[1] = tested on: patient treated with the membrane lung NovaLung iLA; experiment: application of the membrane lung NovaLung iLA on a patient receiving ASA; scanning electron microscope image of the gas exchange membrane; format: in vivo, human
Experimental: A patient who required treatment with the NovaLung iLA was administered 50 mg of ASA daily for 1 week before application of the membrane lung. This administration of 50 mg of ASA daily was initially maintained during application of the membrane lung, but the medicament was discontinued one week before removal of the membrane lung. […] FIG. 1 is a scanning electron microscope image of the gas exchange membrane from the membrane lung which was removed and dismantled after a period of use of 14 days on the patient thus treated and medicated.

platelet aggregation = platelet aggregation in the patient receiving ASA with NovaLung iLA treatment, standard clinical methods; format: in vivo, human
Experimental: The membrane lung NovaLung iLA itself was used in the manner described by Fischer el al., loc cit. The platelet aggregation was determined using standard clinical methods.

With `CC(=O)Oc1ccccc1C(=O)O` [ASA, acetylsalicylic acid] the “deposition of blood constituents on the gas exchange membrane (scanning electron microscope image, FIG. 1)” value ([1]; 50 mg ASA daily oral, membrane lung removed after period of use of 14 days on the patient) was “no deposition of blood constituents”, the “gas exchange performance and flow resistance of the membrane lung to the blood stream” value ([1]; 50 mg ASA daily, membrane lung left on the patient for 2 weeks) was “without an appreciable reduction in gas exchange performance or an appreciable increase in the flow resistance” and the “platelet aggregation (FIG. 3)” value (platelet aggregation; 50 mg ASA daily, during the second week of ASA administration) was “remained at its reduced value”. The “platelet aggregation (FIG. 3)” value (platelet aggregation; 50 mg ASA daily, within the first week of ASA administration, when the membrane lung was connected) was “below 20%” and the “platelet aggregation (FIG. 3)” value (platelet aggregation; two weeks after start of treatment with the membrane lung, 1 week after discontinuation of ASA) was “below 30%”.
